Laboratory results: PubChem BioAssay (NCI)
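All cell lines were grown in 96-well plates and treated with compound for 48 hours. At the GI50, growth is halved. TGI: concentration producing complete growth inhibition.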

Columns and labels:
Assay in all cases: NCI tumour cell line growth inhibition, 48 h
[1] = test system: MOLT-4 leukemia
[2] = test system: LOX IMVI melanoma
[3] = test system: OVCAR-3 ovarian
[4] = test system: RPMI-8226 leukemia
[5] = test system: 786-0 renal
[6] = test system: NCI-H522 lung
[7] = test system: U251 CNS
[8] = test system: KM12 colon
[9] = test system: COLO 205 colon
[10] = test system: CAKI-1 renal

## CC(C)(C)NCC(COc1ccc([N+](=O)[O-])cc1)OP(c1ccccc1)c1ccccc1 (centres undefined)
[1]
  TGI: 49.6 µM
[2]
  TGI: 26.7 µM
[3]
  TGI: > 100 µM
[4]
  TGI: 35.3 µM
[5]
  TGI: > 100 µM
[6]
  TGI: 69.5 µM
[7]
  TGI: > 100 µM
[8]
  TGI: > 100 µM
[9]
  TGI: > 100 µM
[10]
  TGI: > 100 µM

## O=C1[C@H]2ON(c3ccccc3)C(c3ccco3)[C@H]2C(=O)N1c1ccc(Cc2ccc(N3C(=O)[C@@H]4ON(c5ccccc5)C(c5ccco5)[C@@H]4C3=O)cc2)cc1 (some centres undefined)
[1]
  TGI: > 100 µM
[2]
  TGI: > 100 µM
[3]
  TGI: > 100 µM
[4]
  TGI: > 100 µM
[5]
  TGI: > 100 µM
[7]
  TGI: > 100 µM
[8]
  TGI: > 100 µM
[9]
  TGI: > 100 µM
[10]
  TGI: > 100 µM

## c1cnn2ncc(-c3ccnc(Nc4ccc5c(c4)OCCO5)n3)c2c1
[1]
  GI50: 0.0664 µM
  TGI: 0.622 µM
[2]
  GI50: 0.0392 µM
  TGI: > 25 µM
[3]
  GI50: 0.0548 µM
  TGI: 0.142 µM
[4]
  GI50: 0.0783 µM
  TGI: 0.388 µM
[5]
  GI50: 0.0764 µM
  TGI: > 25 µM
[6]
  GI50: 0.116 µM
  TGI: 0.592 µM
[7]
  GI50: 0.0778 µM
  TGI: 2.69 µM
[8]
  GI50: 0.07 µM
  TGI: 0.303 µM
[9]
  GI50: 0.0473 µM
  TGI: 0.107 µM
[10]
  GI50: 0.0773 µM
  TGI: > 8.78 µM

## COc1cc(CNc2nc3ccc(C(F)(F)F)cc3nc2-c2ccccc2)cc(OC)c1OC
[1]
  TGI: 56.8 µM
[2]
  TGI: > 100 µM
[3]
  TGI: > 100 µM
[4]
  TGI: > 100 µM
[5]
  TGI: > 100 µM
[6]
  TGI: 55.7 µM
[7]
  TGI: > 100 µM
[8]
  TGI: > 100 µM
[9]
  TGI: > 100 µM
[10]
  TGI: > 100 µM

## COc1ccc(-c2c(C3=NCCCN3)nnn2-c2ccc([N+](=O)[O-])cc2)cc1
[1]
  TGI: > 100 µM
[2]
  TGI: > 100 µM
[3]
  TGI: > 100 µM
[4]
  TGI: > 100 µM
[5]
  TGI: > 100 µM
[6]
  TGI: > 100 µM
[7]
  TGI: > 100 µM
[8]
  TGI: > 100 µM
[9]
  TGI: > 100 µM
[10]
  TGI: > 100 µM

## CC1OC(c2ccc3c(c2O)C(=O)C2=C(C3=O)C3(O)C(=O)CC(C)(O)CC3(O)C=C2)CC(O)C1O (centres undefined)
[1]
  TGI: 15.3 µM
[2]
  TGI: 30.9 µM
[3]
  TGI: 15.8 µM
[4]
  TGI: 48.1 µM
[5]
  TGI: 33.6 µM
[6]
  TGI: 5.86 µM
[7]
  TGI: 31.4 µM
[8]
  TGI: > 60.6 µM
[9]
  TGI: 3.39 µM
[10]
  TGI: 19.7 µM

## Cc1ccc(C)c(N2C(=O)C(=O)C(c3nc4ccccc4s3)C(=Nc3cccc4c(=O)[nH][nH]c(=O)c34)C2=O)c1 (centres undefined)
[1]
  TGI: > 100 µM
[2]
  TGI: > 100 µM
[3]
  TGI: > 100 µM
[4]
  TGI: > 100 µM
[5]
  TGI: > 100 µM
[7]
  TGI: > 100 µM
[8]
  TGI: > 100 µM
[9]
  TGI: > 100 µM
[10]
  TGI: > 100 µM

## N#Cc1c(-c2ccco2)cc(-c2ccccc2)[nH]c1=O
[1]
  TGI: > 100 µM
[2]
  TGI: > 100 µM
[3]
  TGI: > 100 µM
[4]
  TGI: > 100 µM
[5]
  TGI: > 100 µM
[6]
  TGI: > 100 µM
[7]
  TGI: > 100 µM
[8]
  TGI: > 100 µM
[9]
  TGI: > 100 µM

## CCCCCCCCCCCCCC[n+]1cccc(C(N)=O)c1
[1]
  GI50: 1.67 µM
  TGI: 4.26 µM
[3]
  GI50: 1.93 µM
  TGI: 5.02 µM
[4]
  GI50: 1.87 µM
  TGI: 4.44 µM
[5]
  GI50: 1.32 µM
  TGI: 2.82 µM
[6]
  GI50: 1.31 µM
  TGI: 6.24 µM
[7]
  GI50: 0.652 µM
  TGI: 2.11 µM
[9]
  GI50: 1.29 µM
  TGI: 2.72 µM
[10]
  GI50: 0.964 µM
  TGI: 6.52 µM

## N#C/C(=C1\SC(N=Nc2ccc(Cl)cc2)C(=O)N1c1ccccc1)c1nc2ccccc2[nH]1 (centres undefined)
[2]
  TGI: 57.4 µM
[3]
  TGI: 69 µM
[5]
  TGI: 26.8 µM
[6]
  TGI: 79.9 µM
[7]
  TGI: 44.8 µM
[9]
  TGI: > 100 µM
[10]
  TGI: > 100 µM

## Cc1cc(C)n(C2=NS(=O)(=O)c3ccccc3N2C)n1
[1]
  TGI: > 100 µM
[2]
  TGI: > 100 µM
[3]
  TGI: > 100 µM
[5]
  TGI: > 100 µM
[6]
  TGI: > 100 µM
[7]
  TGI: > 100 µM
[8]
  TGI: > 100 µM
[9]
  TGI: > 100 µM
[10]
  TGI: > 100 µM

## O=c1[nH]c2cc([N+](=O)[O-])ccc2nc1/C(=N\Nc1ccccc1)C(O)c1ccc2c(c1)OCO2 (centres undefined)
[1]
  TGI: > 100 µM
[2]
  TGI: > 100 µM
[3]
  TGI: > 100 µM
[4]
  TGI: > 100 µM
[5]
  TGI: > 100 µM
[6]
  TGI: > 100 µM
[7]
  TGI: > 100 µM
[8]
  TGI: > 100 µM
[9]
  TGI: > 100 µM

## COc1ccccc1NC(=O)/C(=C/c1ccccc1)C(C)=O
[1]
  TGI: > 100 µM
[2]
  TGI: > 100 µM
[3]
  TGI: > 100 µM
[4]
  TGI: > 100 µM
[5]
  TGI: > 100 µM
[6]
  TGI: 58.2 µM
[7]
  TGI: 15 µM
[8]
  TGI: > 100 µM
[10]
  TGI: > 100 µM

## CC1(C)CC(=O)C(CC2C(=O)c3ccccc3C2=O)C(=O)C1
[1]
  TGI: > 100 µM
[2]
  TGI: > 100 µM
[3]
  TGI: > 100 µM
[5]
  TGI: > 100 µM
[6]
  TGI: > 100 µM
[7]
  TGI: > 100 µM
[8]
  TGI: > 100 µM
[9]
  TGI: > 100 µM
[10]
  TGI: > 100 µM

## Cc1ccc(NC(=O)/C(Cc2nc3ccc([N+](=O)[O-])cc3[nH]c2=O)=N\NC(=O)C[n+]2ccccc2)c(C)c1
[1]
  TGI: 88 µM
[2]
  TGI: > 100 µM
[3]
  TGI: 59.3 µM
[5]
  TGI: 79.9 µM
[6]
  TGI: 61.6 µM
[7]
  TGI: > 100 µM
[8]
  TGI: > 100 µM
[9]
  TGI: > 100 µM
[10]
  TGI: > 100 µM

## Cc1ccccc1/C=C/C(=O)c1ccccc1
[1]
  TGI: 60.7 µM
[3]
  TGI: 31 µM
[4]
  TGI: 71.4 µM
[5]
  TGI: 29.9 µM
[6]
  TGI: 46.8 µM
[7]
  TGI: 30.5 µM
[8]
  TGI: 48.6 µM
[9]
  TGI: 46.7 µM
[10]
  TGI: 37.2 µM

## CCOC(=O)N1CCN(CCCCCOc2ccccc2C2CCCCC2)CC1
[1]
  GI50: 2.92 µM
  TGI: 13 µM
[2]
  GI50: 2.85 µM
  TGI: 12.5 µM
[3]
  GI50: 8.29 µM
  TGI: 24.1 µM
[4]
  GI50: 1.61 µM
  TGI: 4.84 µM
[5]
  GI50: 1.86 µM
  TGI: 3.78 µM
[7]
  GI50: 5.05 µM
  TGI: 19 µM
[8]
  GI50: 7.67 µM
  TGI: 23.1 µM
[9]
  GI50: 2.32 µM
  TGI: 7.14 µM
[10]
  GI50: 3.23 µM
  TGI: 12.8 µM

## C[C@]12C/C(=C/O)C(=O)C(O)=C1CC[C@@H]1C2CC[C@@]2(C)C1CC[C@@H]2O (some centres undefined)
[1]
  TGI: 66.5 µM
[2]
  TGI: 30.9 µM
[3]
  TGI: 44.4 µM
[4]
  TGI: 64.8 µM
[5]
  TGI: 87.5 µM
[6]
  TGI: 32 µM
[8]
  TGI: 76.9 µM
[9]
  TGI: 44.5 µM
[10]
  TGI: 76.6 µM

## Cc1ccc2oc(=O)c(-c3ccccc3)nc2c1
[1]
  TGI: > 100 µM
[2]
  TGI: 62.9 µM
[3]
  TGI: > 100 µM
[4]
  TGI: > 100 µM
[5]
  TGI: > 100 µM
[6]
  TGI: 48.7 µM
[8]
  TGI: 50.4 µM
[9]
  TGI: 71.1 µM
[10]
  TGI: > 100 µM

## Cc1cccc(N=Nc2ccc(N=Nc3c(O)ccc4ccccc34)cc2C)c1
[1]
  TGI: > 100 µM
[3]
  TGI: > 100 µM
[4]
  TGI: > 100 µM
[5]
  TGI: > 100 µM
[6]
  TGI: 37.6 µM
[7]
  TGI: > 100 µM
[8]
  TGI: > 100 µM
[9]
  TGI: > 100 µM
[10]
  TGI: > 100 µM
